The record followed here is ChEMBL document CHEMBL4842346, “Improving the metabolic stability of antifungal compounds based on a scaffold hopping strategy: Design, synthesis, and structure-activity relationship studies of dihydrooxazole derivatives” (Eur J Med Chem, 2021).

≈ marks a conversion by molar mass, not a printed value.

Data set [1] deals with Candida albicans. The experiment in a line: Antifungal activity against Candida albicans CPCC400523 assessed as inhibition of fungal growth by NCCLS protocol based method. In kind it is functional.
In data set [2] the target is T1, Lanosterol 14-alpha demethylase (Candida albicans (strain SC5314 / ATCC MYA-2876) (Yeast), UniProt P10613). The experiment in a line: Inhibition of Candida albicans CYP51 assessed as 14alpha-methylergosta-8,24(28)-dien3beta-6alpha-diol level at 0.25 ug/ml measured after 18 hrs by GC-MS analysis relative to control. Also noted: scale not given: the % may be the effect or the level left. The note with it: at 0.25 µg/mL.

Data set [3] deals with Candida parapsilosis. The experiment in a line: Antifungal activity against Candida parapsilosis GIM2.190 assessed as inhibition of fungal growth by NCCLS protocol based method. It counts as functional. To be noted: Lodderomyces parapsilosis.
In data set [4] the test system is Candida tropicalis. Description: Antifungal activity against Candida tropicalis GIM2.183 assessed as inhibition of fungal growth by NCCLS protocol based method. In kind it is functional.
Data set [5] has as its system Cryptococcus neoformans. Description: Antifungal activity against Cryptococcus neoformans CGMCC2.3161 assessed as inhibition of fungal growth by NCCLS protocol based method. It counts as functional.
The test system of data set [6] is Candida albicans. The experiment in a line: Antifungal activity against Candida albicans SC5314 assessed as inhibition of fungal growth by NCCLS protocol based method. In kind it is functional.
The test system of data set [7] is Cryptococcus neoformans. Description: Antifungal activity against Cryptococcus neoformans GIM2.209 assessed as inhibition of fungal growth by NCCLS protocol based method. In kind it is functional.
For data set [8], the target named is T1, Lanosterol 14-alpha demethylase. The experiment in a line: Inhibition of Candida albicans CYP51 assessed as unknown sterol level at 0.25 ug/ml measured after 18 hrs by GC-MS analysis relative to control. Also noted: scale not given: the % may be the effect or the level left. To be noted: at 0.25 µg/mL.
Data set [9] deals with Pichia kudriavzevii. The experiment in a line: Antifungal activity against Candida krusei GIM2.1 assessed as inhibition of fungal growth by NCCLS protocol based method. It counts as functional.
Data set [10] concerns the target T1, Lanosterol 14-alpha demethylase. The experiment in a line: Inhibition of Candida albicans CYP51 assessed as ergosterol level at 0.25 ug/ml measured after 18 hrs by GC-MS analysis relative to control. Set-up: scale not given: the % may be the effect or the level left. To be noted: at 0.25 µg/mL.
Data set [11] has as its system Aspergillus fumigatus. Description: Antifungal activity against Aspergillus fumigatus CGMCC3.7795 assessed as inhibition of fungal growth by NCCLS protocol based method. In kind it is functional.
Data set [12] has as its target T1, Lanosterol 14-alpha demethylase. Description: Inhibition of Candida albicans CYP51 assessed as eburicol level at 0.25 ug/ml measured after 18 hrs by GC-MS analysis relative to control. The note with it: at 0.25 µg/mL. Set-up: scale not given: the % may be the effect or the level left.
The test system of data set [13] is Candida albicans. Description: Antifungal activity against fluconazole resistant Candida albicans CaR assessed as inhibition of fungal growth by NCCLS protocol based method. It counts as functional.
The target of data set [14] is T1, Lanosterol 14-alpha demethylase. The experiment in a line: Inhibition of Candida albicans CYP51 assessed as lanosterol level at 0.25 ug/ml measured after 18 hrs by GC-MS analysis relative to control. Set-up: scale not given: the % may be the effect or the level left. To be noted: at 0.25 µg/mL.
In data set [15] the test system is Candida albicans. Description: Antifungal activity against fluconazole and itraconazole resistant Candida albicans 17# assessed as inhibition of fungal growth by NCCLS protocol based method. It counts as functional.
Data set [16] has as its system Candida albicans. The experiment in a line: Antifungal activity against Candida albicans GIM2.194 assessed as inhibition of fungal growth by NCCLS protocol based method. It counts as functional.

As usually defined, the MIC is the least concentration at which growth counts as inhibited.

T1 sequence (P10613 whole entry): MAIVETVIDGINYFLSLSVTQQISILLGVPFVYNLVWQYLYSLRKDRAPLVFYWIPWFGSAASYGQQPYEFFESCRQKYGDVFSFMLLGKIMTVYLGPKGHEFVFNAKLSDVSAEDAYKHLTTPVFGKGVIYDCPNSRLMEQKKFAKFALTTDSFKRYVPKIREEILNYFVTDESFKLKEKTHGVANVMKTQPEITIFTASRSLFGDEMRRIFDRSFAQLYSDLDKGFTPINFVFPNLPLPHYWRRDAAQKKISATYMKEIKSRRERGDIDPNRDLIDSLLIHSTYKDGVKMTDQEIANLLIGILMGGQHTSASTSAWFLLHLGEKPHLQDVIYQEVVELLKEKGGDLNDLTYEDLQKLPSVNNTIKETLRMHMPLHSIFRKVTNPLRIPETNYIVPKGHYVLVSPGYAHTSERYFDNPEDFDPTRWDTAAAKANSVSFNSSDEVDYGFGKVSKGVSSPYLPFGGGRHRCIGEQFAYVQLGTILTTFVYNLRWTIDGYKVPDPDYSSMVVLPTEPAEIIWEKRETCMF

For `OC(Cn1cncn1)(Cn1cncn1)c1ccc(F)cc1F` [FLUCONAZOLE], the MIC stood at 1 µg/mL (≈ 3.27 µM) in data set [1]; 2 µg/mL (≈ 6.53 µM) in data set [3]; 1 µg/mL (≈ 3.27 µM) in [4]; 4 µg/mL (≈ 13.1 µM) in data set [5]; 0.5 µg/mL (≈ 1.63 µM) in data set [6]; 4 µg/mL (≈ 13.1 µM) in data set [7]. The MIC in [9] was 8 µg/mL (≈ 26.1 µM); in [11], above 64 µg/mL; in [13], above 64 µg/mL; in data set [15], above 64 µg/mL; in data set [16], 1 µg/mL (≈ 3.27 µM). The Activity in data set [2] is 30.66%; in [8], 1.91%; in data set [10], 34.27%; in [12], 7.57%; in data set [14] it was 15.13%.
